Results from patent publication US11147881B2, “Controlled drug release liposome compositions and methods thereof” (TAIWAN LIPOSOME COMPANY, LTD., priority 2013, dated 2021).

Tests used:
[1] = Precipitation study of irinotecan with mono- and polyvalent counterion donors; format: physicochemical
Method: (§1) To examine the precipitation, therapeutic agent solution(s) and counterion donor(s), or therapeutic agent solution(s) and combination of counterion donors were mixed, followed by vigorous agitation and high speed centrifugation to separate insoluble precipitate and free form therapeutic agent(s). The concentration of the free form therapeutic agent(s) was determined by measuring the corresponding absorbance with a plate reader.
(§2) Various compositions were prepared by mixing 60 mg/mL of irinotecan solution and liposomes with 1 mM to 22.5 mM of dextran sulfate (molecular weight 1,600), or with 300 mM of ammonium sulfate and 1 mM to 22.5 mM of dextran sulfate (molecular weight 1,600), followed by vigorous agitation by vortex and centrifugation at 21,460×g for 30 minutes to separate insoluble precipitate from free-form irinotecan. The volume ratio for mixing the irinotecan solution and the counterion donor solution was 1:2, with the final equivalent counterion donor concentrations shown in Table 13.

[2] = Precipitation study of vinorelbine with mono- and polyvalent counterion donors; format: physicochemical
Method: As shown in Example 7, the percentage of encapsulated vinorelbine remaining after plasma incubation is adjustable according to the present invention. The percentage of encapsulated therapeutic agent remaining after plasma incubation can be monitored by precipitation among encapsulated therapeutic agent(s) and counterion donor(s) in the aqueous environment as in FIG. 1, FIG. 5, and FIG. 6. The counterion donors could be selected from monovalent counterion donor(s), polyvalent counterion donor(s), or a combination thereof.
as §1
as §2, with “vinorelbine” for “irinotecan”, “vinorelbine.” for “irinotecan.”, “12.” for “13.”

[3] = AS = 0 mM, DS = 0.67 mM (5.27 mEq/L)
[4] = AS = 0 mM, DS = 2.5 mM (19.68 mEq/L)
[5] = AS = 0 mM, DS = 5 mM (39.35 mEq/L)
[6] = AS = 0 mM, DS = 15 mM (118.05 mEq/L)
[7] = AS = 200 mM, DS = 0 mM (0 mEq/L)
[8] = AS = 200 mM, DS = 0.67 mM (5.27 mEq/L)
[9] = AS = 200 mM, DS = 2.5 mM (19.68 mEq/L)
[10] = AS = 200 mM, DS = 5 mM (39.35 mEq/L)
[11] = AS = 200 mM, DS = 15 mM (118.05 mEq/L)

## CCc1c2c(nc3ccc(OC(=O)N4CCC(N5CCCCC5)CC4)cc13)-c1cc3c(c(=O)n1C2)COC(=O)[C@]3(O)CC [irinotecan]
[1]; AS = 0 mM, DS = 0 mM
  Percentage of free-form CPT11 remaining: 103.4%
[1]; [3]
  Percentage of free-form CPT11 remaining: 82.0%
[1]; AS = 0 mM, DS = 1.6 mM (12.59 mEq/L)
  Percentage of free-form CPT11 remaining: 50.9%
[1]; [4]
  Percentage of free-form CPT11 remaining: 27.3%
[1]; [5]
  Percentage of free-form CPT11 remaining: 2.3%
[1]; [6]
  Percentage of free-form CPT11 remaining: 3.8%
[1]; [7]
  Percentage of free-form CPT11 remaining: 101.1%
[1]; [8]
  Percentage of free-form CPT11 remaining: 83.8%
[1]; AS = 200 mM, DS = 1.6 mM (12.59 mEq/L)
  Percentage of free-form CPT11 remaining: 59.4%
[1]; [9]
  Percentage of free-form CPT11 remaining: 38.3%
[1]; [10]
  Percentage of free-form CPT11 remaining: 9.7%
[1]; [11]
  Percentage of free-form CPT11 remaining: 9.0%
[1]; FIG. 6 left
  visible precipitation with sodium dextran sulfate: precipitation
[1]; FIG. 6 right
  visible precipitation with ammonium sulfate: no visible precipitation
[1]; maximum, at DS of 19.68 mEq/L
  enhancement of free-form irinotecan by ammonium sulfate (as compared to DS alone): up to 11%

## CCC1=C[C@@H]2CN(C1)Cc1c([nH]c3ccccc13)[C@@](C(=O)OC)(c1cc3c(cc1OC)N(C)[C@H]1[C@@](O)(C(=O)OC)[C@H](OC(C)=O)[C@]4(CC)C=CCN5CC[C@]31[C@@H]54)C2 [vinorelbine]
[2]; AS = 0 mM, DS = 0 mM
  Percentage of free-form VNB remaining: 100.7%
[2]; [3]
  Percentage of free-form VNB remaining: 87.1%
[2]; [4]
  Percentage of free-form VNB remaining: 54.0%
[2]; [5]
  Percentage of free-form VNB remaining: 11.0%
[2]; [6]
  Percentage of free-form VNB remaining: 5.4%
[2]; [7]
  Percentage of free-form VNB remaining: 97.6%
[2]; [8]
  Percentage of free-form VNB remaining: 83.3%
[2]; [9]
  Percentage of free-form VNB remaining: 59.0%
[2]; [10]
  Percentage of free-form VNB remaining: 21.2%
[2]; [11]
  Percentage of free-form VNB remaining: 5.7%
[2]; FIG. 5 left
  visible precipitation with sodium dextran sulfate: precipitation
[2]; FIG. 5 right
  visible precipitation with ammonium sulfate: no visible precipitation
[2]; maximum, at DS of 39.35 mEq/L
  enhancement of free-form vinorelbine by ammonium sulfate (as compared to DS alone): up to 10.2%
